From patent US7452913B2, “Polymorphs of pyrrole substituted 2-indolinone protein kinase inhibitors” (Pharmacia & Upjohn Company, priority 2003, dated 2008)
In brackets after ≈: the same amount, converted by molar mass. Like-named read-outs stand apart in the source and are kept apart here. Marks after values point to notes of the source that are not given here.

Columns and labels:
Assay type in all cases: physicochemical
[1] = Rotating disc intrinsic dissolution rate (IDR) determination; conditions: for Color change of pellet side exposed to dissolution medium (solid-state conversion): 0.05M KCl, pH 2 buffer, original pellet yellow; for IDR (n = 3): pH = 2 buffer (0.01 N HCl and 0.05 M KCl) at 23° C.
Method: Rotating Disc Intrinsic Dissolution Rate (IDR) Determination. The IDR was measured using a fiber optic UV automated dissolution system. The dissolution process was monitored in some instances continuously at 426.2 nm using the fiber optic probe with 10 data points taken per minute. To prepare the compressed disc for the experiment, the powders were compressed in a stainless steel (SS) die, (1¼″ dia×1″, ID 3/16″) using a high speed steel (HSS) punch (diameter 3/16″ and length 3½″). The HSS punch was inserted into the die to a distance of about ¾″, leaving about ¼″ for placement of about 10 mg of the drug into the die cavity. A SS base plate (diameter ¼″) was placed to cover the cavity. The entire assembly was then secured by a 2-bolt holder. A Carver press was used to compress the powder at to ˜1,000 lbs (˜37,000 psi) for 3 minutes. The die and holder was removed from the Carver press and the punch was pulled back a little to allow the pellet to relax/expand. The die was then tightly attached on the HSS punch by a set-screw. The entire punch and die assembly containing the drug pellet with one face of the drug pellet exposed was removed as a unit from the holder and was attached to an electric motor. The die was rotated at 300 rpm and was lowered into the dissolution medium 3 min after the initiation of the data collection program. The dissolution medium was degassed and was contained in a 500 mL water jacketed beaker (Pyrex, No.1000). The data collect during the first 3 min provided a baseline value for each dissolution experiment. The dissolution medium consisted of pH=2 solution (0.01 N HCl and 0.05 M KCl). The die was positioned such that the drug compact was about 2.5″ from the bottom of the 500 mL dissolution vessel and about the same distance from the liquid surface. The intrinsic dissolution profile was plotted using Microsoft Excel and the intrinsic dissolution rate was calculated automatically by the program according to equation (1). The volume of dissolution medium was 300 mL. The surface area of the pellet exposed to dissolution medium was 0.177 cm^2. The time period for a dissolution run was usually 15 min but was varied as needed.

[2] = Slurry conversion (suspension crystallization), resulting solid identified by PXRD; conditions: room temperature; for Resulting solid by PXRD: stirred 2 weeks
Method: To determine the relative thermodynamic stability relationship between two polymorphs, a slurry conversion experiment was also studied at room temperature using PXRD.
Polymorph I, 20 mg, was suspended in various solvents alone with trace amount of polymorph II seeding crystals in 10 mL glass vials. The suspensions were stirred by magnetic stirring bars for 2 weeks before the solids were filtered and analyzed by PXRD. […] Because the solubility in THF is higher than that in acetone (Table A), low solubility is not the reason for the slow conversion kinetics.

[3] = Suspension of polymorphs in pH 2 dissolution medium (HCl salt formation test); conditions: for Color change of suspended particles: at least 15 minutes after suspension; for Appearance of suspension: one day after preparation
Text: To further test the HCl salt formation hypothesis. Both polymorph I and II were suspended in the above dissolution medium. […] It is also possible that compaction prior to the IDR experiment modify the crystals of polymorph I and render it the ability of rapid conversion. The XRD pattern of polymorph I pellets compressed at various pressures show some degree of amorphous content, which may be connected to its rapid salt formation during the IDR experiment.

[4] = Estimation of the solubility of a polymorph in various solvents; conditions: thermodynamic from solid
Method: Estimation of the Solubility of a Polymorph in Various Solvents.
Approximately 1.5 mg of the polymorph, was transferred to 10 mL glass vials (tared) and was weighed (accurate to 0.1 mg). Solvents were added to the vials (one solvent each vial) in a step-wise fashion. After each addition, the vial was capped and shaken. The dissolution of solid was visually observed. If no obvious dissolution was observed, more solvent was added immediately. If dissolution was apparent, the vial was left on the bench for at least 30 minutes before the next addition of solvent. This step was repeated until no crystals were visible against a black and a white background. The solubility was then bracketed by dividing the weight by the final volume and the volume before the last addition. If a solid remained after the addition of 10 mL solvent, the solubility was expressed as less than the weight divided by the final volume. If the solid was completely dissolved after the first addition of solvent, the solubility was expressed as greater than the weight divided by the solvent volume. The solubility values were expressed as mg/mL. All experiments were conducted at room temperature.
The estimated solubilities of 5-[5-fluoro-2-oxo-1,2-dihydroindol-(3Z)-ylidenmethyl]-2,4-dimethyl-1H-pyrrole-3-carboxylic acid (2-pyrrolidin-1-ylethyl)-amide in various solvents are presented in Table A. The experiments were carried out using polymorph I at room temperature. The solubilities may be divided into three groups.

[5] = Equilibrium solution pH of non-buffered aqueous medium after adding the compound; conditions: for Equilibrium solution pH: non-buffered aqueous medium, ambient temperature
Method: Determination of the pH—Solubility Profile of Polymorphs.
About 3 mL aqueous solutions of various concentrations of either HCl or NaOH, providing a pH from 1-13, were transferred to a 10 ml glass vial. A sufficient amount of the polymorph was added. The vials were wrapped with aluminum foil and manually shaken. They were allowed to sit in the fume hood overnight prior to any further treatment.
As expected, the equilibrium solubility of this compound is higher at lower solution pH (Table A). However, the dissolution of a particle in a dissolution medium depends on the pH in the diffusion layer. The pH value of the diffusion layer in intimate contact with the solid (pHh=0) may be obtained from equilibrium pH of the solution, measured by a pH meter. Results are presented in Table B. When the initial pH is higher than 10, the solubility of 5-[5-fluoro-2-oxo-1,2-dihydroindol-(3Z)-ylidenmethyl]-2,4-dimethyl-1 H-pyrrole-3-carboxylic acid (2-pyrrolidin-1-ylethyl)-amide is very low. Therefore, the pH of the solution at equilibrium is almost not changed. On the other hand, if the initial pH<10, more 5-[5-fluoro-2-oxo-1,2-dihydroindol-(3Z)-ylidenmethyl]-2,4-dimethyl-1H-pyrrole-3-carboxylic acid (2-pyrrolidin-1-ylethyl)-amide goes into solution and the equilibrium solution pH is higher than the initial pH (Table B).

[6] = pKa

In the case of `Cc1[nH]c(/C=C2\C(=O)Nc3ccc(F)cc32)c(C)c1C(=O)NCCN1CCCC1` [polymorph II, 5-[5-fluoro-2-oxo-1,2-dihydroindol-(3Z)-ylidenmethyl]-2,4-dimethyl-1H-pyrrole-3-carboxylic acid (2-pyrrolidin-1-ylethyl)-amide], the “Color change of pellet side exposed to dissolution medium (solid-state conversion)” value [1] is reported as “No obvious color change”, the “IDR of polymorph II relative to apparent IDR of polymorph I” value ([1]; pH 2 buffer at 23° C.) is reported as “about three times” and the “IDR (n = 3)” value [1] is reported as 3.54 ± 0.15 mg/min/cm^2. For the same compound, the “Relative thermodynamic stability of the polymorphs” value [2] was “thermodynamically more stable than polymorph I”, the “Color change of suspended particles” value [3] was “no change of color” and the Appearance of suspension [3] was “orange-red needle-shaped crystals”.

In the case of `Cc1[nH]c(/C=C2\C(=O)Nc3ccc(F)cc32)c(C)c1C(=O)NCCN1CCCC1` [polymorph I, 5-[5-fluoro-2-oxo-1,2-dihydroindol-(3Z)-ylidenmethyl]-2,4-dimethyl-1H-pyrrole-3-carboxylic acid (2-pyrrolidin-1-ylethyl)-amide], the “Color change of pellet side exposed to dissolution medium (solid-state conversion)” value [1] is reported as “orange-red”, the “IDR (n = 3)” value [1] is reported as 1.08 ± 0.09^c mg/min/cm^2 and the “Resulting solid by PXRD” value ([2]; Acetone suspension) is reported as “converts to polymorph II”. For the same compound, the “Resulting solid by PXRD” value ([2]; Methanol suspension) was “converts to polymorph II”, the “Resulting solid by PXRD” value ([2]; THF suspension) was “appears stable” and the “Color change of suspended particles” value [3] was “no change of color”. The Appearance of suspension [3] was “orange-red needle-shaped crystals”, the solubility ([4]; aqueous buffer, Water (pH = 2), 23° C., read-out: Solubility) was 3110 µg/mL (≈ 7840 µM) and the solubility ([4]; aqueous buffer, Water (pH = 6), 23° C., read-out: Solubility) was 5 µg/mL (≈ 12.6 µM). It also gave a solubility ([4]; organic solvent or mixture, Acetone, 23° C., read-out: Solubility) of under 160 µg/mL, a solubility ([4]; organic solvent or mixture, Acetonitrile, 23° C., read-out: Solubility) of under 80 µg/mL and a solubility ([4]; organic solvent or mixture, CH2Cl2, 23° C., read-out: Solubility) of under 120 µg/mL. For the same compound, the solubility ([4]; organic solvent or mixture, Chloroform, 23° C., read-out: Solubility) was under 110 µg/mL, the solubility ([4]; organic solvent or mixture, DMF, 23° C., read-out: Solubility) was over 1500 µg/mL and the solubility ([4]; organic solvent or mixture, DMSO, 23° C., read-out: Solubility) was 1500 to 3000 µg/mL (≈ 3780 to 7570 µM). It also gave a solubility ([4]; organic solvent or mixture, Dioxane, 23° C., read-out: Solubility) of 180 to 200 µg/mL (≈ 454 to 504 µM), a solubility ([4]; organic solvent or mixture, Ethyl acetate, 23° C., read-out: Solubility) of under 280 µg/mL and a solubility ([4]; organic solvent or mixture, Hexane, 23° C., read-out: Solubility) of under 130 µg/mL. For the same compound, the solubility ([4]; organic solvent or mixture, Isopropanol, 23° C., read-out: Solubility) was under 140 µg/mL, the solubility ([4]; organic solvent or mixture, PEG 400, 23° C., read-out: Solubility) was 300 to 430 µg/mL (≈ 757 to 1080 µM) and the solubility ([4]; organic solvent or mixture, THF, 23° C., read-out: Solubility) was 320 to 400 µg/mL (≈ 807 to 1010 µM). The solubility ([4]; organic solvent or mixture, Toluene, 23° C., read-out: Solubility) was under 130 µg/mL, the solubility ([4]; organic solvent or mixture, ethanol, 23° C., read-out: Solubility) was 170 to 190 µg/mL (≈ 429 to 479 µM) and the solubility ([4]; organic solvent or mixture, methanol, 23° C., read-out: Solubility) was 210 to 310 µg/mL (≈ 530 to 782 µM).

With `Cc1[nH]c(/C=C2\C(=O)Nc3ccc(F)cc32)c(C)c1C(=O)NCCN1CCCC1` [5-[5-fluoro-2-oxo-1,2-dihydroindol-(3Z)-ylidenmethyl]-2,4-dimethyl-1H-pyrrole-3-carboxylic acid (2-pyrrolidin-1-ylethyl)-amide] the “pH of the diffusion layer in contact with the solid (pHh=0)” value ([5]; bulk dissolution medium pH as low as 1.4) was over 5, the “Solubility at initial pH higher than 10” value ([5]; initial pH higher than 10, aqueous) was “very low” and the “Equilibrium solution pH” value ([5]; initial solution pH 1.43) was 5.36. The “Equilibrium solution pH” value ([5]; initial solution pH 2.19) was 5.20, the “Equilibrium solution pH” value ([5]; initial solution pH 3.22) was 6.98 and the “Equilibrium solution pH” value ([5]; initial solution pH 5.47) was 8.13. For the same compound, the “Equilibrium solution pH” value ([5]; initial solution pH 6.73) was 8.31, the “Equilibrium solution pH” value ([5]; initial solution pH 7.24) was 8.49 and the “Equilibrium solution pH” value ([5]; initial solution pH 7.61) was 8.87. For the same compound, the “Equilibrium solution pH” value ([5]; initial solution pH 10.07) was 9.86, the “Equilibrium solution pH” value ([5]; initial solution pH 11.53) was 11.61 and the “Equilibrium solution pH” value ([5]; initial solution pH 12.50) was 12.52. For the same compound, the “Equilibrium solution pH” value ([5]; initial solution pH 13.20) was 13.18, the solubility ([4]; DMF and pH<=2 water (one solvent per vial), organic solvent or mixture, DMSO, DMF and pH<=2 water, polymorph I, room temperature, read-out: Solubility (Group III solvents)) was over 1000 µg/mL and the solubility ([4]; dioxane and THF (one solvent per vial), organic solvent or mixture, methanol, ethanol, dioxane and THF, polymorph I, room temperature, read-out: Solubility (Group II solvents)) was 100 to 400 µg/mL (≈ 252 to 1010 µM). For the same compound, the solubility ([4]; organic solvent or mixture, isopropyl alcohol, CH2Cl2, ethyl acetate, acetonitrile, acetone, chloroform, toluene, hexane and pH>6 water, polymorph I, room temperature, read-out: Solubility (Group I solvents)) was under 300 µg/mL and the pKa [6] was 8.5.
